From PubChem BioAssay (NCI)
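48-hour exposure; five concentrations; linearly interpolated endpoints. TGI denotes the concentration required for complete inhibition of growth.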

How the values were obtained:
Assay in all cases: growth of human tumour cells (NCI), 48 h
SN12C renal = tested on: SN12C renal
RPMI-8226 leukemia = tested on: RPMI-8226 leukemia
M14 melanoma = tested on: M14 melanoma
NCI-H226 lung = tested on: NCI-H226 lung
OVCAR-4 ovarian = tested on: OVCAR-4 ovarian
OVCAR-3 ovarian = tested on: OVCAR-3 ovarian
PC-3 prostate = tested on: PC-3 prostate
MOLT-4 leukemia = tested on: MOLT-4 leukemia
HCT-116 colon = tested on: HCT-116 colon
RXF 393 renal = tested on: RXF 393 renal
A549 NSCLC = tested on: A549 NSCLC
HS 578T breast = tested on: HS 578T breast
UACC-62 melanoma = tested on: UACC-62 melanoma
IGROV1 ovarian = tested on: IGROV1 ovarian
MDA-MB-231 breast = tested on: MDA-MB-231 breast
SR leukemia = tested on: SR leukemia
HOP-62 NSCLC = tested on: HOP-62 NSCLC
BT-549 breast = tested on: BT-549 breast
HL-60(TB) leukemia = tested on: HL-60(TB) leukemia
NCI-H522 lung = tested on: NCI-H522 lung
MCF7 breast = tested on: MCF7 breast
COLO 205 colon = tested on: COLO 205 colon
NCI-H460 lung = tested on: NCI-H460 lung
UO-31 renal = tested on: UO-31 renal
SF-268 CNS = tested on: SF-268 CNS
NCI-H23 lung = tested on: NCI-H23 lung
TK-10 renal = tested on: TK-10 renal
NCI/ADR-RES ovarian = tested on: NCI/ADR-RES ovarian
HCT-15 colon = tested on: HCT-15 colon
SF-539 CNS = tested on: SF-539 CNS
U251 CNS = tested on: U251 CNS
786-0 renal = tested on: 786-0 renal
KM12 colon = tested on: KM12 colon
SK-MEL-5 melanoma = tested on: SK-MEL-5 melanoma
CAKI-1 renal = tested on: CAKI-1 renal
OVCAR-8 ovarian = tested on: OVCAR-8 ovarian
SW-620 colon = tested on: SW-620 colon
SK-MEL-28 melanoma = tested on: SK-MEL-28 melanoma
CCRF-CEM leukemia = tested on: CCRF-CEM leukemia
SNB-75 CNS = tested on: SNB-75 CNS
MDA-N = tested on: MDA-N
UACC-257 melanoma = tested on: UACC-257 melanoma
DU-145 prostate = tested on: DU-145 prostate
ACHN renal = tested on: ACHN renal
SK-OV-3 ovarian = tested on: SK-OV-3 ovarian
K-562 leukemia = tested on: K-562 leukemia
SNB-19 CNS = tested on: SNB-19 CNS
MDA-MB-435 = tested on: MDA-MB-435
EKVX NSCLC = tested on: EKVX NSCLC
T-47D breast = tested on: T-47D breast
HCC-2998 colon = tested on: HCC-2998 colon
SF-295 CNS = tested on: SF-295 CNS
HT29 colon = tested on: HT29 colon
MALME-3M melanoma = tested on: MALME-3M melanoma
LOX IMVI melanoma = tested on: LOX IMVI melanoma
OVCAR-5 ovarian = tested on: OVCAR-5 ovarian
SK-MEL-2 melanoma = tested on: SK-MEL-2 melanoma

COc1ccc(N2C(=O)C3c4[nH]c5ccccc5c4C4CCC(C(C)(C)C)CC4C3C2=O)c(C)c1 (configuration not stated)
TGI (SN12C renal): > 100 µM | TGI (RPMI-8226 leukemia): > 100 µM | TGI (M14 melanoma): > 100 µM | TGI (NCI-H226 lung): > 100 µM | TGI (OVCAR-4 ovarian): > 100 µM | TGI (OVCAR-3 ovarian): > 100 µM | TGI (PC-3 prostate): > 100 µM | TGI (MOLT-4 leukemia): > 100 µM | TGI (HCT-116 colon): > 100 µM | TGI (RXF 393 renal): > 100 µM | TGI (A549 NSCLC): > 100 µM | TGI (HS 578T breast): > 100 µM | TGI (UACC-62 melanoma): > 100 µM | TGI (IGROV1 ovarian): > 100 µM | TGI (MDA-MB-231 breast): > 100 µM | TGI (SR leukemia): > 100 µM | TGI (HOP-62 NSCLC): > 100 µM | TGI (BT-549 breast): > 100 µM | TGI (HL-60(TB) leukemia): > 100 µM | TGI (NCI-H522 lung): > 100 µM | TGI (MCF7 breast): > 100 µM | TGI (COLO 205 colon): > 100 µM | TGI (NCI-H460 lung): > 100 µM | TGI (UO-31 renal): > 100 µM | TGI (SF-268 CNS): > 100 µM | TGI (NCI-H23 lung): > 100 µM | TGI (TK-10 renal): > 100 µM | TGI (NCI/ADR-RES ovarian): > 100 µM | TGI (HCT-15 colon): > 100 µM | TGI (SF-539 CNS): > 100 µM | TGI (U251 CNS): > 100 µM | TGI (786-0 renal): > 100 µM | TGI (KM12 colon): > 100 µM | TGI (SK-MEL-5 melanoma): > 100 µM | TGI (CAKI-1 renal): > 100 µM | TGI (OVCAR-8 ovarian): > 100 µM | TGI (SW-620 colon): > 100 µM | TGI (SK-MEL-28 melanoma): > 100 µM | TGI (CCRF-CEM leukemia): > 100 µM | TGI (SNB-75 CNS): > 100 µM | TGI (MDA-N): > 100 µM | TGI (UACC-257 melanoma): > 100 µM | TGI (DU-145 prostate): > 100 µM | TGI (ACHN renal): > 100 µM | TGI (SK-OV-3 ovarian): > 100 µM | TGI (K-562 leukemia): > 100 µM | TGI (SNB-19 CNS): > 100 µM | TGI (MDA-MB-435): > 100 µM | TGI (EKVX NSCLC): > 100 µM | TGI (T-47D breast): > 100 µM | TGI (HCC-2998 colon): > 100 µM | TGI (SF-295 CNS): > 100 µM | TGI (HT29 colon): > 100 µM

Oc1ccc(-c2nc(-c3cccnc3)c(-c3ccc(F)cc3)[nH]2)cc1
TGI (SN12C renal): 54.6 µM | TGI (MALME-3M melanoma): 32.6 µM | TGI (RPMI-8226 leukemia): 39.8 µM | TGI (M14 melanoma): 32.9 µM | TGI (NCI-H226 lung): 46.8 µM | TGI (OVCAR-4 ovarian): 52.7 µM | TGI (OVCAR-3 ovarian): 31.1 µM | TGI (PC-3 prostate): 35.2 µM | TGI (MOLT-4 leukemia): 33.2 µM | TGI (HCT-116 colon): 32.9 µM | TGI (RXF 393 renal): 33.9 µM | TGI (A549 NSCLC): 65 µM | TGI (HS 578T breast): 46.4 µM | TGI (UACC-62 melanoma): 29.6 µM | TGI (IGROV1 ovarian): 33.8 µM | TGI (MDA-MB-231 breast): 41.7 µM | TGI (SR leukemia): 85 µM | TGI (HOP-62 NSCLC): 36.7 µM | TGI (BT-549 breast): 32.6 µM | TGI (HL-60(TB) leukemia): 52 µM | TGI (MCF7 breast): 32.7 µM | TGI (COLO 205 colon): 36.8 µM | TGI (NCI-H460 lung): 63.9 µM | TGI (SF-268 CNS): 49.8 µM | TGI (NCI-H23 lung): 25.5 µM | TGI (TK-10 renal): 36.2 µM | TGI (NCI/ADR-RES ovarian): 42.6 µM | TGI (LOX IMVI melanoma): 28.5 µM | TGI (HCT-15 colon): 64.5 µM | TGI (U251 CNS): 32.9 µM | TGI (786-0 renal): 59 µM | TGI (KM12 colon): 33.2 µM | TGI (SK-MEL-5 melanoma): 33.8 µM | TGI (CAKI-1 renal): 78.6 µM | TGI (OVCAR-8 ovarian): 34.3 µM | TGI (SW-620 colon): 35.5 µM | TGI (SK-MEL-28 melanoma): 35.9 µM | TGI (CCRF-CEM leukemia): 42.1 µM | TGI (SNB-75 CNS): 35 µM | TGI (MDA-N): 37.5 µM | TGI (UACC-257 melanoma): 31.5 µM | TGI (DU-145 prostate): 63.1 µM | TGI (ACHN renal): 58.5 µM | TGI (SK-OV-3 ovarian): 57.1 µM | TGI (K-562 leukemia): 54.6 µM | TGI (SNB-19 CNS): 60.8 µM | TGI (OVCAR-5 ovarian): 68 µM | TGI (MDA-MB-435): 31.1 µM | TGI (EKVX NSCLC): 41.7 µM | TGI (SK-MEL-2 melanoma): 34.6 µM | TGI (T-47D breast): 43.8 µM | TGI (HCC-2998 colon): 40.3 µM | TGI (SF-295 CNS): 32 µM | TGI (HT29 colon): 32.5 µM
